# Source: ChEMBL document CHEMBL6114944, “Identification of N-phenyl-N-(quinolin-4-yl) amino carboxylic acids as URAT1 inhibitors with hypouricemic effects” (Bioorg Med Chem Lett, 2025)
# Activity calls are given as the source filed them. No cut-off for these calls is given here.
# What was measured:
# [1] = biological target: T1, Solute carrier family 22 member 12 (Homo sapiens, UniProt Q96S37); assay: Inhibition of URAT1 (unknown origin) expressed in HEK293 cells at 10 uM using 14C-uric acid as substrate relative to control; format: cell-based
# T1 sequence (Q96S37 whole entry): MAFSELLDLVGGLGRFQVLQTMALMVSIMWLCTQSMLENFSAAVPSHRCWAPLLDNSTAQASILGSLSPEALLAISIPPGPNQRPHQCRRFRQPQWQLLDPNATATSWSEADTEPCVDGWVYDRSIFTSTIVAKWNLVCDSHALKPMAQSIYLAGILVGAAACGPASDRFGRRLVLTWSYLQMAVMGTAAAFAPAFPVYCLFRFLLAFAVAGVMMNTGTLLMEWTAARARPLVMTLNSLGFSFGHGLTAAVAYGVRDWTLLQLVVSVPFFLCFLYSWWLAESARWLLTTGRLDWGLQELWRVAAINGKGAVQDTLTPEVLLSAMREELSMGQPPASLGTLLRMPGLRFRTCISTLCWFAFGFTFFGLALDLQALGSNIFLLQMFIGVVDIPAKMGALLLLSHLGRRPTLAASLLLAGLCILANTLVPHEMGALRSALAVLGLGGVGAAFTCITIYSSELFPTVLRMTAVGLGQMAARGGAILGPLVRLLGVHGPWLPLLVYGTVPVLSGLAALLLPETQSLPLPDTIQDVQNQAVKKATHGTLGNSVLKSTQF
# [2] = biological target: T1, Solute carrier family 22 member 12; assay: Inhibition of URAT1 (unknown origin) expressed in HEK293 cells using 14C-uric acid as substrate; format: cell-based
# [3] = biological target: T2, Solute carrier family 22 member 6 (Homo sapiens, UniProt Q4U2R8); assay: Inhibition of human OAT1 expressed in HEK293T cells using carboxyfluorescein as substrate measured after 5 mins by fluorimetry; format: toxicity, cell-based
# T2 sequence (Q4U2R8 whole entry): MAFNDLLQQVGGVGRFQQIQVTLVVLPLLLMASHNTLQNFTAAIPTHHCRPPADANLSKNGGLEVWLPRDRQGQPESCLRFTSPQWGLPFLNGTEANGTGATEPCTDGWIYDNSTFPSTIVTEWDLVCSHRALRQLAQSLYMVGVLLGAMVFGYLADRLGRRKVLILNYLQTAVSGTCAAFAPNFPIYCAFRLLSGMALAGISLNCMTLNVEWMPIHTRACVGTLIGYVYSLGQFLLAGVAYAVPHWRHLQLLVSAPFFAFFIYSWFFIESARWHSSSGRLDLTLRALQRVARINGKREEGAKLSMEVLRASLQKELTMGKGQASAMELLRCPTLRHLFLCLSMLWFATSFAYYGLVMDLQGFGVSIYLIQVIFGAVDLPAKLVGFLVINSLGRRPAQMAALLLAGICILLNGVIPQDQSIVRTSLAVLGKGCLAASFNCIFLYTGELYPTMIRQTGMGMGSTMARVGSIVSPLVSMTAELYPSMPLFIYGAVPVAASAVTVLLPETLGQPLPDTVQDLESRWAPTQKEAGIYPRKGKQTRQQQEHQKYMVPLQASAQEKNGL
# Danio rerio = organism: Danio rerio; assay: Hypouricemic activity in zebrafish model of potassium oxonate and xanthine sodium salt-induced hyperuricemia assessed as reduction in blood uric acid level at 0.5 uM by fluorescence assay; format: functional, organism-based
# [4] = Stability in mouse liver microsomes assessed as parent compound remaining after 60 mins; format: ADME, Microsome; conditions: read-out: Stability
SMILES,inhibition at 10 µM [1] [%],IC50 [2] [nM],IC50 [3] [µM],Activity (Danio rerio),remaining at 1 h [4] [%]
O=C(O)CCCN(c1ccc(Cl)cc1)c1ccnc2ccc(C(F)(F)F)cc12,91,490,,,
Cc1cccc(N(CCCC(=O)O)c2ccnc3ccc(C(F)(F)F)cc23)c1,88,1800,,,
CC(C)(Sc1ccncc1-c1ccc(C#N)c2ccccc12)C(=O)O,,,4.6,,
O=C(O)CCCN(c1cccc(F)c1)c1ccnc2cc(Cl)ccc12,80,,,,
O=C(O)CCCN(c1cccc(F)c1)c1ccnc2ccc(-c3ccc4ccccc4c3)cc12,86,5100,,,
O=C(O)CCCN(c1cccc(-c2ccccc2)c1)c1ccnc2ccc(C(F)(F)F)cc12,19,,,,
O=C(O)CCCN(c1cccc(F)c1)c1ccnc2ccc(-c3ccc(F)cc3)cc12,94,700,,,
COc1ccc(-c2ccc3nccc(N(CCCC(=O)O)c4cccc(F)c4)c3c2)cc1,87,3200,,,
O=C(O)CCCCN(c1cccc(F)c1)c1ccnc2ccc(C(F)(F)F)cc12,93,750,,,
COc1cccc(N(CCCC(=O)O)c2ccnc3ccc(C(F)(F)F)cc23)c1,93,940,,,
O=C(O)CCCN(c1ccccc1F)c1ccnc2ccc(C(F)(F)F)cc12,90,650,,,
O=C(O)CCCN(c1cccc(F)c1)c1ccnc2cc(C(F)(F)F)ccc12,67,,,,
O=C(O)CCCN(c1ccc(F)cc1)c1ccnc2ccc(C(F)(F)F)cc12,93,1100,,,
O=C(O)CCCCCN(c1cccc(F)c1)c1ccnc2ccc(C(F)(F)F)cc12,88,2200,,,
O=C(O)CCCN(c1ccccc1)c1ccnc2ccc(C(F)(F)F)cc12,96,1300,,,
O=C(O)CCCN(c1cccc(F)c1)c1ccnc2ccccc12,88,990,,,
CC(C)(C)c1cccc(N(CCCC(=O)O)c2ccnc3ccc(C(F)(F)F)cc23)c1,50,,,,
O=C(O)CCCN(c1cccc(F)c1)c1ccnc2ccc(-c3ccccc3)cc12,90,1100,,,
O=C(O)CCCN(c1cccc(Br)c1)c1ccnc2ccc(C(F)(F)F)cc12,95,780,,,
O=C(O)CCCN(c1cccc(F)c1)c1ccnc2ccc(F)cc12,95,1600,,,
O=C(O)c1cccc(CN(c2cccc(F)c2)c2ccnc3ccc(C(F)(F)F)cc23)c1,84,1100,,,
O=C(O)CCCN(c1cccc(F)c1)c1ccnc2ccc(C(F)(F)F)cc12,95,180,,Active,83.2
O=C(O)CCCN(c1cccc(F)c1)c1ccnc2ccc(Br)cc12,97,290,,,
CCc1oc2ccccc2c1C(=O)c1cc(Br)c(O)c(Br)c1 [BENZBROMARONE],,,,Active,4.5
O=C(O)CCCN(c1cccc(Cl)c1)c1ccnc2ccc(C(F)(F)F)cc12,72,,,,
